{"source": "patent US11111375B2", "about": "“Compositions and methods for generating oligodendrocyte precursors” (The Regents of the University of California, priority 2015, dated 2021)", "key": {"H9 hESCs": {"test_system": "H9 hESCs", "experiment": "Preliminary comparison of SHH and SAG for early OPC differentiation (ICC)", "assay_type": "cell-based, human", "conditions": "3D, 13 days", "experimental": "Following expansion, hPSCs were cultured in early OPC differentiation medium as described in FIG. 4A and fed daily with neural induction medium. Briefly, cells were first patterned with the dual-SMAD inhibitors LDN193189 and SB431542, and then ventralized using SHH or SAG. In some conditions, cells were caudalized using RA. On day 11 of the differentiation, cell-aggregates were split at a 1 to 3 ratio, broken into smaller-size aggregates by gentle pipetting (up and down, 10-15 times), re-encapsulated in the thermoresponsive gel, and fed with OPC proliferation medium. O1 ng/mL of FGF-2 (Peprotech) was then added to the OPC proliferation media described in FIG. 7A (added daily from day 14 until day 18, or from day 20 until day 24 of the differentiation). After FGF treatment, cells were fed every 2-3 days with OPC maturation medium, which included 20 μg/mL of L-Ascorbic Acid (Sigma) from day 75 until day 95. […]\nFor ICC analysis of cells differentiated in 3D, cell-spheres were transferred onto poly-D-lysine (10 μg/mL) and laminin (10 μg/mL)-coated glass-bottom plates, and incubated with their respective medium to enable cell spreading. […] Image Xpress Micro (IXM) was used for ICC quantification analysis, and Zeiss LSM 710 Axio Observer was used for confocal imaging. Images were analyzed using ImageJ and quantified using CellProfiler."}, "H9 cells": {"test_system": "H9 cells", "experiment": "ICC of OPC maturation markers (O4, SOX10, NKX2.2, OLIG2) in H9 cells", "assay_type": "cell-based, human", "experimental": "Following expansion, hPSCs were cultured in early OPC differentiation medium as described in FIG. 4A and fed daily with neural induction medium. Briefly, cells were first patterned with the dual-SMAD inhibitors LDN193189 and SB431542, and then ventralized using SHH or SAG. In some conditions, cells were caudalized using RA. On day 11 of the differentiation, cell-aggregates were split at a 1 to 3 ratio, broken into smaller-size aggregates by gentle pipetting (up and down, 10-15 times), re-encapsulated in the thermoresponsive gel, and fed with OPC proliferation medium. O1 ng/mL of FGF-2 (Peprotech) was then added to the OPC proliferation media described in FIG. 7A (added daily from day 14 until day 18, or from day 20 until day 24 of the differentiation). After FGF treatment, cells were fed every 2-3 days with OPC maturation medium, which included 20 μg/mL of L-Ascorbic Acid (Sigma) from day 75 until day 95. See FIG. 20 for a detailed description of the differentiation conditions.\nFor ICC analysis of cells differentiated in 3D, cell-spheres were transferred onto poly-D-lysine (10 μg/mL) and laminin (10 μg/mL)-coated glass-bottom plates, and incubated with their respective medium to enable cell spreading. After 48 hr (for early OPC differentiation) or 5 days (for late stage OPC analysis), cells were fixed with 4% PFA for 15 min at RT. After one wash with PBS, cells were incubated overnight at 4° C. with primary antibody in freshly prepared staining primary solution (5% donkey serum, (DS), 2% bovine serum albumin (BSA) and 0.25% Triton X-100 in PBS). Then, cells were gently washed twice with PBS, and incubated for 2 hr at room temperature (RT) with secondary antibodies and 4′,6-diamidino-2-phenylindole (DAPI) (1:1000) in freshly prepared secondary staining solution (2% DS, 2% BSA and 0.25% Triton X-100 in PBS). Cells were then washed three times with PBS and imaged using a Zeiss Axio Observer epi-fluorescent microscope. Image Xpress Micro (IXM) was used for ICC quantification analysis, and Zeiss LSM 710 Axio Observer was used for confocal imaging. Images were analyzed using ImageJ and quantified using CellProfiler."}, "[1]": {"conditions": "early FGF treatment: FGF-2 daily day 14 to day 18"}}, "data": [{"compound": "CNC1CCC(N(Cc2cccc(-c3ccncc3)c2)C(=O)c2sc3ccccc3c2Cl)CC1", "note": "(centres unmarked) [SAG]", "values": [{"measurement": "differences in NKX2.2 and OLIG2 expression, SHH vs SAG", "setting": "H9 hESCs", "result": "only minor differences"}]}, {"compound": "FGF-2: basic fibroblast growth factor-2 added to OPC proliferation medium", "values": [{"measurement": "fewer O4+ OPCs than with early FGF treatment", "setting": "H9 cells; FGF-2 from days 20-24, day 95", "result": "~4", "unit": "fold"}, {"measurement": "OPC differentiation on day 24 versus analogous condition without FGF", "setting": "H9 cells; [1]", "result": "similar"}, {"measurement": "number of cells expressing O4 by day 95", "setting": "H9 cells; [1]", "result": "increased"}]}, {"compound": "Vitamin D [reference compound]", "values": [{"measurement": "O4 expression among treated cells", "setting": "H9 cells; 0.1 μM from day 66 to day 95, H9 hESCs, condition 6 and early FGF", "result": "no increase"}]}]}
